The values that follow come from patent US10004701B2, “Methods and compositions for treating infection” (UNIVERSITY OF ROCHESTER, priority 2012, dated 2018).

Structures can show the parent of a compound that is named as a salt. Where two headings read alike, the source gives them in different places.

Assay in all cases: AK assay 384-well format, Prestwick library screening
One assay relates to E. faecium. The assay is classed as cell-based, Enterococcus faecium. Conditions: 50 μM final drug concentration; for fold induction at 50 µM: Enterococcus faecium, 3 h.
Assay [1] relates to S. aureus strain USA300-0114. In kind it is cell-based, Staphylococcus aureus. Conditions: 50 μM final drug concentration; for fold induction at 50 µM: Staphylococcus aureus, USA300, 3 h.
Another assay deals with K. pneumoniae. In kind it is cell-based, Klebsiella pneumoniae. Conditions: 50 μM final drug concentration; for fold induction at 50 µM: Klebsiella pneumoniae, 3 h.
The test system of assay [2] is A. baumannii strain 98-37-09. In kind it is cell-based, Acinetobacter baumannii. Conditions: 50 μM final drug concentration; for fold induction at 50 µM: Acinetobacter baumannii, 983709, 3 h.
The subject of a further assay is P. aeruginosa. In kind it is cell-based, Pseudomonas aeruginosa. Conditions: 50 μM final drug concentration; for fold induction at 50 µM: Pseudomonas aeruginosa, 3 h.
A further assay deals with E. cloacae. The assay is classed as cell-based, Enterobacter cloacae. Conditions: 50 μM final drug concentration; for fold induction at 50 µM: Enterobacter cloacae, 3 h.
A further assay has as its system E. coli. The assay is classed as cell-based, Escherichia coli. Conditions: 50 μM final drug concentration; for fold induction at 50 µM: Escherichia coli, 3 h.
[3] abbreviates: 384-well format, cutoff for positive-scoring molecules 3-fold increase, read-out: AK-based Prestwick Library Screening Results, E. faecium (increase in extracellular AK activity).
Where [4] appears, read: 384-well format, cutoff for positive-scoring molecules 3-fold increase, read-out: AK-based Prestwick Library Screening Results, S. aureus (increase in extracellular AK activity).
[5] abbreviates: 384-well format, cutoff for positive-scoring molecules 3-fold increase, read-out: AK-based Prestwick Library Screening Results, K. pneumoniae (increase in extracellular AK activity).
Where [6] appears, read: 384-well format, cutoff for positive-scoring molecules 3-fold increase, read-out: AK-based Prestwick Library Screening Results, A. baumannii (increase in extracellular AK activity).
The mark [7] stands for this setting: 384-well format, cutoff for positive-scoring molecules 3-fold increase, read-out: AK-based Prestwick Library Screening Results, P. aeruginosa (increase in extracellular AK activity).
Where [8] appears, read: 384-well format, cutoff for positive-scoring molecules 3-fold increase, read-out: AK-based Prestwick Library Screening Results, E. cloacae (increase in extracellular AK activity).
The mark [9] stands for this setting: 384-well format, cutoff for positive-scoring molecules 3-fold increase, read-out: AK-based Prestwick Library Screening Results, E. coli (increase in extracellular AK activity).

For the compound `COc1c2c(nc3ccccc13)OC(C(C)(O)CO)C2` (stereo not drawn) [Dubinidine], the “AK-based Prestwick library screening result, E. faecium (fold increase in extracellular AK activity)” value in the assay on E. faecium (planktonic E. faecium, positive cutoff 3-fold increase) is reported as 1.0. The “AK-based Prestwick library screening result, S. aureus (fold increase in extracellular AK activity)” value in assay [1] (planktonic S. aureus, positive cutoff 3-fold increase) is recorded as 2.4. Also, in the assay on K. pneumoniae (planktonic K. pneumoniae, positive cutoff 3-fold increase), the “AK-based Prestwick library screening result, K. pneumoniae (fold increase in extracellular AK activity)” value turned out to be 0.9. For the same compound, the “AK-based Prestwick library screening result, A. baumannii (fold increase in extracellular AK activity)” value in assay [2] (planktonic A. baumannii, positive cutoff 3-fold increase) turned out to be 1.1. Besides, the “AK-based Prestwick library screening result, P. aeruginosa (fold increase in extracellular AK activity)” value with P. aeruginosa (planktonic P. aeruginosa, positive cutoff 3-fold increase) came to 1.0. For the same compound, in the assay with E. cloacae (planktonic E. cloacae, positive cutoff 3-fold increase), the “AK-based Prestwick library screening result, E. cloacae (fold increase in extracellular AK activity)” value is 1.3. Moreover, the “AK-based Prestwick library screening result, E. coli (fold increase in extracellular AK activity)” value in the assay with E. coli (planktonic E. coli, […]) is given as 1.4.
Take `CC1(C)S[C@@H]2[C@H](NC(=O)[C@H](NC(=O)N3CCNC3=O)c3ccccc3)C(=O)N2[C@H]1C(=O)O` [Azlocillin sodium salt]: the fold induction at 50 µM with E. faecium (planktonic, cutoff for positive-scoring molecules 3-fold increase, read-out: AK-based Prestwick Library Screening Results, E. faecium (fold increase in extracellular AK activity)) is 0.9; in assay [1] (planktonic, cutoff for positive-scoring molecules 3-fold increase, read-out: AK-based Prestwick Library Screening Results, S. aureus (fold increase in extracellular AK activity)), 0.4; with K. pneumoniae (planktonic, cutoff for positive-scoring molecules 3-fold increase, read-out: AK-based Prestwick Library Screening Results, K. pneumoniae (fold increase in extracellular AK activity)), 0.7; in assay [2] (planktonic, cutoff for positive-scoring molecules 3-fold increase, read-out: AK-based Prestwick Library Screening Results, A. baumannii (fold increase in extracellular AK activity)) it was 2.1; in the assay on P. aeruginosa (planktonic, cutoff for positive-scoring molecules 3-fold increase, read-out: AK-based Prestwick Library Screening Results, P. aeruginosa (fold increase in extracellular AK activity)), 9.7; in the assay with E. cloacae (planktonic, cutoff for positive-scoring molecules 3-fold increase, read-out: AK-based Prestwick Library Screening Results, E. cloacae (fold increase in extracellular AK activity)), 1. For the same compound, the fold induction at 50 µM with E. coli (planktonic, cutoff for positive-scoring molecules 3-fold increase, read-out: AK-based Prestwick Library Screening Results, E. coli (fold increase in extracellular AK activity)) turned out to be 12.3.
In the case of `C=C[C@H]1C[N@@]2CC[C@H]1C[C@@H]2[C@@H](O)c1ccnc2ccccc12` [Cinchonine], the fold induction at 50 µM in the assay on E. faecium (planktonic, cutoff for positive 3-fold increase, read-out: AK-based Prestwick Library Screening Results, E. faecium (fold increase in extracellular AK activity)) is 1.1; in assay [1] (planktonic, cutoff for positive 3-fold increase, read-out: AK-based Prestwick Library Screening Results, S. aureus (fold increase in extracellular AK activity)) it was 1.6; in the assay on K. pneumoniae (planktonic, cutoff for positive 3-fold increase, read-out: AK-based Prestwick Library Screening Results, K. pneumoniae (fold increase in extracellular AK activity)), 1; in assay [2] (planktonic, cutoff for positive 3-fold increase, read-out: AK-based Prestwick Library Screening Results, A. baumannii (fold increase in extracellular AK activity)), 1.1; with P. aeruginosa (planktonic, cutoff for positive 3-fold increase, read-out: AK-based Prestwick Library Screening Results, P. aeruginosa (fold increase in extracellular AK activity)), 1.1; in the assay on E. cloacae (planktonic, cutoff for positive 3-fold increase, read-out: AK-based Prestwick Library Screening Results, E. cloacae (fold increase in extracellular AK activity)), 1.5. The fold induction at 50 µM in the assay with E. coli (planktonic, cutoff for positive 3-fold increase, read-out: AK-based Prestwick Library Screening Results, E. coli (fold increase in extracellular AK activity)) turned out to be 1.2.
Take `Cc1ncc([N+](=O)[O-])n1CCO` [Metronidazole]: the fold induction at 50 µM was 0.8 in the assay with E. faecium (setting [3]); 0.4 in assay [1] (setting [4]); 0.4 in the assay on K. pneumoniae (setting [5]); 0.4 in assay [2] (setting [6]); 0.3 in the assay with P. aeruginosa (setting [7]); 0.3 in the assay on E. cloacae (setting [8]). Further, the fold induction at 50 µM in the assay on E. coli (setting [9]) amounted to 0.4.
With `C[C@@H]1C(=O)O[C@H]2C[C@@]34[C@H]5C[C@@H](C(C)(C)C)[C@]36[C@@H](OC(=O)[C@@H]6O)O[C@@]4(C(=O)O5)[C@]21O` [Ginkgolide A], the “AK-based Prestwick Library Screening Results, E. faecium (increase in extracellular AK activity)” value in the assay with E. faecium (planktonic E. faecium, […]) was found to be 1.0. The “AK-based Prestwick Library Screening Results, S. aureus (increase in extracellular AK activity)” value in assay [1] (planktonic S. aureus, […]) is listed as 1.1. Moreover, the “AK-based Prestwick Library Screening Results, K. pneumoniae (increase in extracellular AK activity)” value in the assay on K. pneumoniae (planktonic K. pneumoniae, […]) came to 1.0. Further, the “AK-based Prestwick Library Screening Results, A. baumannii (increase in extracellular AK activity)” value in assay [2] (planktonic A. baumannii, […]) was determined as 1.0. Further, the “AK-based Prestwick Library Screening Results, P. aeruginosa (increase in extracellular AK activity)” value with P. aeruginosa (planktonic P. aeruginosa, […]) was 1.1. The “AK-based Prestwick Library Screening Results, E. cloacae (increase in extracellular AK activity)” value in the assay with E. cloacae (planktonic E. cloacae, […]) turned out to be 1.2. Moreover, the “AK-based Prestwick Library Screening Results, E. coli (increase in extracellular AK activity)” value in the assay on E. coli (planktonic E. coli, […]) is 1.3.
For `CN1CCc2cc3c(cc2C1O)OCO3` (stereo not drawn) [Hydrastinine hydrochloride], the fold induction at 50 µM came out at 0.9 with E. faecium (setting [3]); 0.7 in assay [1] (setting [4]); 0.8 with K. pneumoniae (setting [5]); 0.9 in assay [2] (setting [6]); 0.9 in the assay on P. aeruginosa (setting [7]); 1.2 in the assay on E. cloacae (setting [8]). Moreover, the fold induction at 50 µM in the assay on E. coli (setting [9]) came out at 1.
Regarding `CCCNC(=O)NS(=O)(=O)c1ccc(Cl)cc1` [Chlorpropamide], the fold induction at 50 µM with E. faecium (planktonic E. faecium, 384-well, cutoff for positive-scoring molecules 3-fold increase, read-out: AK-based Prestwick Library Screening Results: E. faecium (increase in extracellular AK activity)) was found to be 0.9; in assay [1] (planktonic S. aureus, 384-well, cutoff for positive-scoring molecules 3-fold increase, read-out: AK-based Prestwick Library Screening Results: S. aureus (increase in extracellular AK activity)), 0.4; in the assay with K. pneumoniae (planktonic K. pneumoniae, 384-well, cutoff for positive-scoring molecules 3-fold increase, read-out: AK-based Prestwick Library Screening Results: K. pneumoniae (increase in extracellular AK activity)), 0.4; in assay [2] (planktonic A. baumannii, 384-well, cutoff for positive-scoring molecules 3-fold increase, read-out: AK-based Prestwick Library Screening Results: A. baumannii (increase in extracellular AK activity)), 0.3; in the assay on P. aeruginosa (planktonic P. aeruginosa, 384-well, cutoff for positive-scoring molecules 3-fold increase, read-out: AK-based Prestwick Library Screening Results: P. aeruginosa (increase in extracellular AK activity)) it was 0.3; with E. cloacae (planktonic E. cloacae, 384-well, cutoff for positive-scoring molecules 3-fold increase, read-out: AK-based Prestwick Library Screening Results: E. cloacae (increase in extracellular AK activity)), 0.3. Further, the fold induction at 50 µM in the assay with E. coli (planktonic E. coli, 384-well, cutoff for positive-scoring molecules 3-fold increase, read-out: AK-based Prestwick Library Screening Results: E. coli (increase in extracellular AK activity)) was 0.4.
For `COc1cc(-c2ccc(=O)[nH]n2)ccc1OC(F)F` [Zardaverine], the fold induction at 50 µM was found to be 1 in the assay on E. faecium (planktonic E. faecium, positive cutoff 3-fold increase, read-out: AK-based Prestwick library screening result, E. faecium (fold increase in extracellular AK activity)); 0.6 in assay [1] (planktonic S. aureus, positive cutoff 3-fold increase, read-out: AK-based Prestwick library screening result, S. aureus (fold increase in extracellular AK activity)); 0.7 in the assay on K. pneumoniae (planktonic K. pneumoniae, positive cutoff 3-fold increase, read-out: AK-based Prestwick library screening result, K. pneumoniae (fold increase in extracellular AK activity)); 0.7 in assay [2] (planktonic A. baumannii, positive cutoff 3-fold increase, read-out: AK-based Prestwick library screening result, A. baumannii (fold increase in extracellular AK activity)); 0.7 in the assay on P. aeruginosa (planktonic P. aeruginosa, positive cutoff 3-fold increase, read-out: AK-based Prestwick library screening result, P. aeruginosa (fold increase in extracellular AK activity)); 0.9 with E. cloacae (planktonic E. cloacae, positive cutoff 3-fold increase, read-out: AK-based Prestwick library screening result, E. cloacae (fold increase in extracellular AK activity)). In addition, the fold induction at 50 µM in the assay with E. coli (planktonic E. coli, […], read-out: AK-based Prestwick library screening result, E. coli (fold increase in extracellular AK activity)) worked out at 0.6.
In the case of `NNCCc1ccccc1` [Phenelzine sulfate], the fold induction at 50 µM was found to be 0.8 with E. faecium (setting [3]); 0.5 in assay [1] (setting [4]); 0.6 in the assay on K. pneumoniae (setting [5]); 0.5 in assay [2] (setting [6]); 0.5 in the assay with P. aeruginosa (setting [7]); 0.5 in the assay on E. cloacae (setting [8]). Besides, the fold induction at 50 µM in the assay on E. coli (setting [9]) amounted to 0.5.
